# Experiments:
# [1] = target: T1, Oecophylla smaragdina silk fibroin 1 (GA1), SEQ ID NO: 9 (Oecophylla smaragdina, UniProt A8IM81); assay: Haem b leached into green ant silk GA1 film; format: binding; settings: signal at around 400 nm
# T1 construct: film
# T1 sequence (A8IM81 20-391): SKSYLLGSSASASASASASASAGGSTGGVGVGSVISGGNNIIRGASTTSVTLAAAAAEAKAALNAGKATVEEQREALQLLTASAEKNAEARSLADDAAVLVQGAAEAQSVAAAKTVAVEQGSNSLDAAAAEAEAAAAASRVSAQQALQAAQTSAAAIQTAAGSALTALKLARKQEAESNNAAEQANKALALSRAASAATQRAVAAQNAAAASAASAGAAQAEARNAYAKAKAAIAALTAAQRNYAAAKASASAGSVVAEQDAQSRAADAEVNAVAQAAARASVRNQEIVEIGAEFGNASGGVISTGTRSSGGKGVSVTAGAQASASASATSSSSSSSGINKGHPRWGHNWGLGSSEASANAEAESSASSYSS
# Text: (§1) Full length, recombinant honeybee silk proteins (AmelF3) without affinity purification tags, were produced by fermentation in Escherichia coli as described in Weisman et al. (2010). Full length, recombinant Weaver Ant/Green Ant (Oecophylla smaragdina) silk proteins (GA1, GA2, GA3, GA4) without affinity purification tags, were produced by fermentation in Escherichia coli following the same procedures as outlined in Weisman et al. (2010).
# (§2) Alternatively, haem b was ‘leached’ into a pre-formed film. The AmelF3 material was formed as described in example 1. The silk material was soaked in a solution of haem b (0.5 mg/mL; haem b in excess) in 70% methanol solution for between 1 and 48 hours followed by washing with 70% methanol to remove any unbound haem b and dried at room temperature.
# (§3) Transparent films from the Green Ant (Oecophylla smaragdina) (GA1-4) silk proteins were prepared as described above. Haem b in 70% methanol was leached into the preformed Green Ant silk film as described at Example 3. UV/Vis spectra were collected for Green Ant silk film after haem b had been leached.
# [2] = target: T2, Apis mellifera AmelF3 (SEQ ID NO: 39) variant Y76H A97H (Apis mellifera, UniProt A0ACM8QI31, A116H/Y95H); assay: Binding of heme to AmelF3 Y76H A97H; settings: Soret peak vs heme ratio
# T2 sequence (A0ACM8QI31 20-335 Y95H/A116H): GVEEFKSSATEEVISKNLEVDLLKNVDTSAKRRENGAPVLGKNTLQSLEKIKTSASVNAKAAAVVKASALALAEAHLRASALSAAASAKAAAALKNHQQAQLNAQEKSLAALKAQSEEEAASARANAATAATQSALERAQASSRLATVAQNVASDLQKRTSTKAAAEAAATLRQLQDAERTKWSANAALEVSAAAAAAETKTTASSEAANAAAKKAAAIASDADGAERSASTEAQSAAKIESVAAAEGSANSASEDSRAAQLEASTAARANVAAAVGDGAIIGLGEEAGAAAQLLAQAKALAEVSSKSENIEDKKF
# Description: Site directed mutagenesis of honeybee silk proteins was carried using methods known to the person skilled in the art. For example, to generate AmelF3 Tyr76Ala, the forward primer 5′-[…]-3′ (SEQ ID NO: 80) with the corresponding reverse primer was employed and site directed mutagenesis was carried out using Pfx 50 DNA polymerase from Invitrogen following the Pfx50 manufactures instructions. All AmelF3 mutants were expressed and purified using a similar procedure as the unmodified AmelF3 silk protein. To generate AmelF3 Tyr76His, the forward primer 5′-[…]-3′ (SEQ ID NO: 81) with the corresponding reverse primer was employed. To generate AmelF3 Ala97His, the forward primer 5′-[…]-3′ (SEQ ID NO: 82) was used.
# A coordinating His residue (His97) was introduced into AmelF3 with Y76H substitution in the a-position of the coiled-coil.
# [3] = target: T3, Oecophylla smaragdina silk fibroin 3 (GA3), SEQ ID NO: 11 (Oecophylla smaragdina, UniProt A8IM91); assay: Haem b leached into green ant silk GA3 film; format: binding; settings: signal at around 400 nm
# T3 construct: film
# T3 sequence (A8IM91 20-395): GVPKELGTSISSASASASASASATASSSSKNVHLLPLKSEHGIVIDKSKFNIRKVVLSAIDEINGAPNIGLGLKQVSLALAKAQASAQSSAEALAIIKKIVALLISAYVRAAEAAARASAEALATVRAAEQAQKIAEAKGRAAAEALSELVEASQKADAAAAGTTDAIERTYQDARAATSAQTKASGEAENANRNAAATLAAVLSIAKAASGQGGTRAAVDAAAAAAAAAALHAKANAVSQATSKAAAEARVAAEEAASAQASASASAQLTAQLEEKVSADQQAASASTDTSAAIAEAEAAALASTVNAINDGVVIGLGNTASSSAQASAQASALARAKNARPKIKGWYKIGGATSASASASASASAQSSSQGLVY
# Text: as §1, §2, §3
# [4] = target: T4, recombinant honeybee (Apis mellifera) silk protein AmelF3, unmodified, SEQ ID NO: 39 (Apis mellifera, UniProt A0ACM8QI31); assay: Binding of macrocycles/chelates to AmelF3 sponges or films (colour retained after washing, UV/Vis); settings: sponge or film, qualitative
# T4 construct: sponges and films
# T4 sequence (A0ACM8QI31 entry or part of it): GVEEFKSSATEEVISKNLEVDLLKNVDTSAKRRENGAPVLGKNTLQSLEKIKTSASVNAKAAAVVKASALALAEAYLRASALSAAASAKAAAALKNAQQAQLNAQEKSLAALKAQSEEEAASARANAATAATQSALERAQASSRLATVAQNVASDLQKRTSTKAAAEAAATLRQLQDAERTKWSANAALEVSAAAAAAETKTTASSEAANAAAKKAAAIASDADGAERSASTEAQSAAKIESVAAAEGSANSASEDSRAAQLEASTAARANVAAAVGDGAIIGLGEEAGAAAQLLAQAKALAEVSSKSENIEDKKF
# Description: as §1
# AmelF3 sponges were prepared as described in example 1. […] The colour change observed with honeybee silk indicates a change in the coordination of the iron metal centre within the haem group, producing a material with a similar coordination to red haemoglobin. The colour was not removed by extensive washing with 70% methanol, 0.1M HCl or 0.1M NaCl.
# An embodiment of the composition of the present invention was formed by co-drying a solution of AmelF3 and haem b. Briefly, 2 mg haem b and 20 mg AmelF3 silk sponge was dissolved in 1 mL of HFIP overnight at room temperature. The solution was aliquoted into either a cuvette or 24-well plate and dried at room temperature. The dried film was soaked overnight in 70% methanol to make the film insoluble in water.
# as §2
# AmelF3 films with different ratios of haem b to AmelF3 were prepared by co-drying haem and AmelF3 HFIP solutions. At low haem loadings (haem:protein molar ratios of 1:1 and 1:2), a sharp Soret peak at 404 nm was observed, indicative of all the haem being coordinated (FIG. 3). As the concentration of haem b relative to the protein was increased, the Soret peak broadened and shifted to lower wavelengths indicating an increase in the amount of uncoordinated haem (FIG. 3).
# The ability of sponges generated from recombinant AmelF3 to bind a range of macrocyles was tested by adding a solution of the macrocmacrocycle containing an excess of the macrocycle to be tested to the AmelF3 sponge and observing the colour of the sponge and whether the sponge retained colour after washing. The strength of macrocycle binding was assessed qualitatively by assessing the intensity of the colour retained by the sponge after washing. Strong binding to the sponge refers to the finding that the macrocycle cannot be washed out with aqueous methanol, organic solvents, 0.1 M HCl or 0.1 M NaOH.
# Films generated from recombinant honeybee silk protein AmelF3 containing dicyanocobyrinic acid heptamethyl ester were prepared as described in example 3. UV/Vis spectrum were recorded for a film generated from recombinant AmelF3 containing dicyanocobyrinic acid heptamethyl ester and a solution of dicyanocobyrinic acid heptamethyl ester without AmelF3 (FIG. 8).
compound,measurement,setting,value
C=CC1=C(C)c2cc3[nH]c(cc4nc(cc5[nH]c(cc1n2)c(C)c5CCC(=O)O)C(CCC(=O)O)=C4C)c(C)c3C=C.[Fe] [haem b],haem binding (in words),[1],strongly bound haem
same,number of heme cofactors bound,[2],two
same,haem binding (in words),[3],strongly bound haem
same,binding to silk protein (in words),[4],strongly bound

# — US10870875B2, “Metalloprotein compositions” (Commonwealth Scientific and Industrial Research Organisation, priority 2014, dated 2020)
